Laboratory results as given in PubChem BioAssay AID184 (DTP/NCI, 2004).
Where “and” joins values, the source holds several entries; their conditions need not be identical. Equal entries are not always repeated. Toxic doses and inconclusive results are not listed.

Tested on: BALB/cJ mice, ADJ-PC-6 ip tumor, median survival T/C
Assay: NCI In Vivo Anticancer Drug Screen. Data for tumor model ADJ-PC-6 (intraperitoneal) in BALB/cJ mice
Conditions: endpoint: median survival time, higher = longer survival
Description: The antitumor activity of compounds was measured in mice bearing transplantable tumors. Survival or tumor size were measured and the results are expressed as the measurement made in the treated group (T) divided by the measurement made in the vehicle treated control group (C). The tumor model used in this assay is ADJ-PC-6 (intraperitoneal) in BALB/cJ mice

[1] = dose: 50.0 mg/kg/injection, schedule: Q01DX009 (ip), vehicle: saline with Tween-80
[2] = dose: 100.0 mg/kg/injection, schedule: Q01DX009 (ip), vehicle: saline with Tween-80
[3] = dose: 200.0 mg/kg/injection, schedule: Q01DX009 (ip), vehicle: saline with Tween-80
[4] = dose: 200.0 mg/kg/injection, schedule: Q04DX003 (ip), vehicle: Klucel (hydroxypropylcellulose) (HPC)
[5] = dose: 10.0 mg/kg/injection, schedule: Q01DX009 (ip), vehicle: saline
[6] = dose: 20.0 mg/kg/injection, schedule: Q01DX009 (ip), vehicle: saline

CC1(CO)C(O)CCC2(C)C1CCC1CC3CC12CCC3(O)CO (stereo not given)
T/C (dose: 37.5 mg/kg/injection, schedule: Q04DX003 (ip), vehicle: Klucel (hydroxypropylcellulose) (HPC)): 92 % of control and 120 % of control
T/C (dose: 75.0 mg/kg/injection, schedule: Q04DX003 (ip), vehicle: Klucel (hydroxypropylcellulose) (HPC)): 115 % of control and 118 % of control
T/C (dose: 150.0 mg/kg/injection, schedule: Q04DX003 (ip), vehicle: Klucel (hydroxypropylcellulose) (HPC)): 100 % of control and 109 % of control
T/C (dose: 600.0 mg/kg/injection, schedule: Q04DX003 (ip), vehicle: Klucel (hydroxypropylcellulose) (HPC)): 106 % of control

CC1OC(=O)C(C(C)C)NC(=O)C(C(C)C)OC(=O)C(C(C)C)NC(=O)C(C)OC(=O)C(C(C)C)NC(=O)C(C(C)C)OC(=O)C(C(C)C)NC(=O)C(C)OC(=O)C(C(C)C)NC(=O)C(C(C)C)OC(=O)C(C(C)C)NC1=O (stereo not given)
T/C (dose: 0.75 mg/kg/injection, schedule: Q04DX003 (ip), vehicle: Klucel (hydroxypropylcellulose) (HPC)): 87 % of control
T/C (dose: 1.5 mg/kg/injection, schedule: Q04DX003 (ip), vehicle: Klucel (hydroxypropylcellulose) (HPC)): 102 % of control
T/C (dose: 2.0 mg/kg/injection, schedule: Q01DX009 (ip), vehicle: Klucel (hydroxypropylcellulose) (HPC)): 100 % of control
T/C (dose: 4.0 mg/kg/injection, schedule: Q01DX009 (ip), vehicle: Klucel (hydroxypropylcellulose) (HPC)): 104 % of control
T/C (dose: 8.0 mg/kg/injection, schedule: Q01DX009 (ip), vehicle: Klucel (hydroxypropylcellulose) (HPC)): 185 % of control

COc1cc2c(c(OC)c1OC)-c1ccc(OC)c(=O)cc1[C@@H](NC(C)=O)CC2
T/C (dose: 0.05 mg/kg/injection, schedule: Q01DX009 (ip), vehicle: Klucel (hydroxypropylcellulose) (HPC)): 99 % of control
T/C (dose: 0.1 mg/kg/injection, schedule: Q01DX009 (ip), vehicle: Klucel (hydroxypropylcellulose) (HPC)): 88 % of control
T/C (dose: 0.2 mg/kg/injection, schedule: Q01DX009 (ip), vehicle: Klucel (hydroxypropylcellulose) (HPC)): 102 % of control
T/C (dose: 0.4 mg/kg/injection, schedule: Q01DX009 (ip), vehicle: Klucel (hydroxypropylcellulose) (HPC)): 108 % of control

C(=N/NC1=NCCN1)/c1c2ccccc2c(/C=N\NC2=NCCN2)c2ccccc12
T/C (dose: 3.75 mg/kg/injection, schedule: Q04DX003 (ip), vehicle: saline): 253 % of control
T/C (dose: 3.75 mg/kg/injection, schedule: Q04DX003 (ip), vehicle: water): 235 % of control
T/C (dose: 7.5 mg/kg/injection, schedule: Q04DX003 (ip), vehicle: saline): 204 % of control
T/C (dose: 7.5 mg/kg/injection, schedule: Q04DX003 (ip), vehicle: water): 235 % of control
T/C (dose: 15.0 mg/kg/injection, schedule: Q04DX003 (ip), vehicle: saline): 253 % of control
T/C (dose: 15.0 mg/kg/injection, schedule: Q04DX003 (ip), vehicle: water): 235 % of control
T/C (dose: 30.0 mg/kg/injection, schedule: Q04DX003 (ip), vehicle: saline): 225 % of control
T/C (dose: 30.0 mg/kg/injection, schedule: Q04DX003 (ip), vehicle: water): 235 % of control
T/C (dose: 60.0 mg/kg/injection, schedule: Q04DX003 (ip), vehicle: saline): 267 % of control

CN(C)/N=N/c1nc[nH]c1C(N)=O
T/C [1]: 99 % of control
T/C (dose: 50.0 mg/kg/injection, schedule: Q04DX003 (ip), vehicle: saline with Tween-80): 335 % of control and 471 % of control
T/C [2]: 110 % of control
T/C [3]: 105 % of control
T/C [4]: 216 % of control and 275 % of control
T/C (dose: 200.0 mg/kg/injection, schedule: Q04DX003 (ip), vehicle: saline with Tween-80): 335 % of control and 471 % of control
T/C (dose: 400.0 mg/kg/injection, schedule: Q04DX003 (ip), vehicle: Klucel (hydroxypropylcellulose) (HPC)): 275 % of control and 369 % of control
T/C (dose: 400.0 mg/kg/injection, schedule: Q04DX003 (ip), vehicle: saline with Tween-80): 227 % of control and 335 % of control and 471 % of control

COc1cc(NCc2ccc3nc(N)nc(N)c3c2C)cc(OC)c1OC
T/C (dose: 3.75 mg/kg/injection, schedule: Q01DX009 (ip), vehicle: Klucel (hydroxypropylcellulose) (HPC)): 98 % of control
T/C (dose: 7.5 mg/kg/injection, schedule: Q01DX009 (ip), vehicle: Klucel (hydroxypropylcellulose) (HPC)): 110 % of control
T/C (dose: 15.0 mg/kg/injection, schedule: Q01DX009 (ip), vehicle: Klucel (hydroxypropylcellulose) (HPC)): 115 % of control

CC1(C)N=C(N)N=C(N)N1c1ccc(CCCCc2ccc(S(=O)(=O)F)cc2Cl)c(Cl)c1
T/C (dose: 2.5 mg/kg/injection, schedule: Q01DX009 (ip), vehicle: saline): 88 % of control
T/C (dose: 5.0 mg/kg/injection, schedule: Q01DX009 (ip), vehicle: saline): 101 % of control
T/C [5]: 106 % of control
T/C (dose: 12.5 mg/kg/injection, schedule: Q04DX003 (ip), vehicle: Klucel (hydroxypropylcellulose) (HPC)): 96 % of control
T/C [6]: 119 % of control
T/C (dose: 25.0 mg/kg/injection, schedule: Q04DX003 (ip), vehicle: Klucel (hydroxypropylcellulose) (HPC)): 91 % of control
T/C (dose: 50.0 mg/kg/injection, schedule: Q04DX003 (ip), vehicle: Klucel (hydroxypropylcellulose) (HPC)): 92 % of control
T/C (dose: 100.0 mg/kg/injection, schedule: Q04DX003 (ip), vehicle: Klucel (hydroxypropylcellulose) (HPC)): 91 % of control
T/C [4]: 91 % of control

CO[C@H]1C[C@@H]2CC[C@@H](C)[C@@](O)(O2)C(=O)C(=O)N2CCCC[C@H]2C(=O)O[C@H]([C@H](C)C[C@@H]2CC[C@@H](O)[C@H](OC)C2)CC(=O)[C@H](C)C=C(C)[C@@H](O)[C@@H](OC)C(=O)[C@H](C)C[C@H](C)/C=C/C=C/C=C1C
T/C (dose: 7.5 mg/kg/injection, schedule: Q01DX009 (ip), vehicle: saline with Tween-80): 113 % of control and 114 % of control
T/C (dose: 15.0 mg/kg/injection, schedule: Q01DX009 (ip), vehicle: saline with Tween-80): 116 % of control
T/C (dose: 25.0 mg/kg/injection, schedule: Q01DX009 (ip), vehicle: saline): 87 % of control
T/C (dose: 30.0 mg/kg/injection, schedule: Q01DX009 (ip), vehicle: saline with Tween-80): 114 % of control and 118 % of control
T/C (dose: 50.0 mg/kg/injection, schedule: Q01DX009 (ip), vehicle: saline): 98 % of control
T/C (dose: 60.0 mg/kg/injection, schedule: Q01DX009 (ip), vehicle: saline with Tween-80): 95 % of control and 110 % of control
T/C (dose: 100.0 mg/kg/injection, schedule: Q01DX009 (ip), vehicle: saline): 87 % of control
T/C (dose: 120.0 mg/kg/injection, schedule: Q01DX009 (ip), vehicle: saline with Tween-80): 87 % of control
T/C (dose: 200.0 mg/kg/injection, schedule: Q01DX009 (ip), vehicle: saline): 93 % of control

CS(=O)(=O)c1ncc(Br)cn1
T/C (dose: 25.0 mg/kg/injection, schedule: Q01DX009 (ip), vehicle: saline with Tween-80): 105 % of control
T/C [1]: 105 % of control
T/C [2]: 118 % of control
T/C [3]: 100 % of control

O=C1c2c(O)ccc(O)c2C(=O)c2c(NCCNCCO)ccc(NCCNCCO)c21
T/C (dose: 0.38 mg/kg/injection, schedule: Q04DX003 (ip), vehicle: saline): 155 % of control and 267 % of control
T/C (dose: 0.38 mg/kg/injection, schedule: Q04DX003 (iv), vehicle: saline): 89 % of control
T/C (dose: 0.5 mg/kg/injection, schedule: Q04DX003 (ip), vehicle: saline): 188 % of control
T/C (dose: 0.5 mg/kg/injection, schedule: Q04DX003 (ip), vehicle: water): 186 % of control
T/C (dose: 0.75 mg/kg/injection, schedule: Q04DX003 (ip), vehicle: saline): 179 % of control and 267 % of control
T/C (dose: 1.0 mg/kg/injection, schedule: Q04DX003 (ip), vehicle: saline): 207 % of control
T/C (dose: 1.0 mg/kg/injection, schedule: Q04DX003 (ip), vehicle: water): 195 % of control
T/C (dose: 1.5 mg/kg/injection, schedule: Q04DX003 (ip), vehicle: saline): 194 % of control and 267 % of control
T/C (dose: 1.5 mg/kg/injection, schedule: Q04DX003 (iv), vehicle: saline): 153 % of control and 217 % of control
T/C (dose: 2.0 mg/kg/injection, schedule: Q04DX003 (ip), vehicle: saline): 342 % of control
T/C (dose: 2.0 mg/kg/injection, schedule: Q04DX003 (ip), vehicle: water): 235 % of control
T/C (dose: 3.0 mg/kg/injection, schedule: Q04DX003 (ip), vehicle: saline): 194 % of control and 267 % of control
T/C (dose: 3.0 mg/kg/injection, schedule: Q04DX003 (iv), vehicle: saline): 155 % of control and 232 % of control
T/C (dose: 4.0 mg/kg/injection, schedule: Q04DX003 (ip), vehicle: saline): 160 % of control
T/C (dose: 6.0 mg/kg/injection, schedule: Q04DX003 (iv), vehicle: saline): 179 % of control and 267 % of control

ClCC[N+]12CC[N+](CCCl)(CC1)C2
T/C [5]: 88 % of control and 96 % of control and 111 % of control
T/C [6]: 100 % of control and 103 % of control
T/C (dose: 40.0 mg/kg/injection, schedule: Q01DX009 (ip), vehicle: saline): 106 % of control
T/C (dose: 80.0 mg/kg/injection, schedule: Q01DX009 (ip), vehicle: saline): 107 % of control and 113 % of control (2×)
T/C (dose: 160.0 mg/kg/injection, schedule: Q01DX009 (ip), vehicle: saline): 96 % of control and 102 % of control and 103 % of control
